# Measured values: patent US20250101023A1, “HETEROARYL DERIVATIVE AND USES THEREOF” (IUCF-HYU (INDUSTRY-UNIVERSITY COOPERATION FOUNDATION …, priority 2022, published 2025)
# Assays:
# PAK6 = PAK6 (Homo sapiens (Human), UniProt Q9NQU5); assay: Kinome-wide profiling; assay type: biochemical; settings: read-out: % Residual Activity (mean)
# GSK3b = GSK3b (Homo sapiens (Human), UniProt P49841); assay: Kinome-wide profiling; assay type: biochemical; settings: read-out: % Residual Activity (mean)
# NEK5 = NEK5 (Homo sapiens (Human), UniProt Q6P3R8); assay: Kinome-wide profiling; assay type: biochemical; settings: read-out: % Residual Activity (mean)
# FGFR2 = FGFR2 (Homo sapiens (Human), UniProt P21802); assay: Kinome-wide profiling; assay type: biochemical; settings: read-out: % Residual Activity (mean)
# TNK1 = TNK1 (Homo sapiens (Human), UniProt Q13470); assay: Kinome-wide profiling; assay type: biochemical; settings: read-out: % Residual Activity (mean)
# IRAK4 = IRAK4 (Homo sapiens (Human), UniProt Q9NWZ3); assay: Kinome-wide profiling; assay type: biochemical; settings: read-out: % Residual Activity (mean)
# c-MER = c-MER (Homo sapiens (Human), UniProt Q12866); assay: Kinome-wide profiling; assay type: biochemical; settings: read-out: % Residual Activity (mean)
# LKB1 = LKB1 (Homo sapiens (Human), UniProt Q15831); assay: Kinome-wide profiling; assay type: biochemical; settings: read-out: % Residual Activity (mean)
# PKCeta = PKCeta (Homo sapiens (Human), UniProt P24723); assay: Kinome-wide profiling; assay type: biochemical; settings: read-out: % Residual Activity (mean)
# LYN B = LYN B (Homo sapiens (Human), UniProt P07948); assay: Kinome-wide profiling; assay type: biochemical; settings: read-out: % Residual Activity (mean)
# BRSK1 = BRSK1 (Homo sapiens (Human), UniProt Q8TDC3); assay: Kinome-wide profiling; assay type: biochemical; settings: read-out: % Residual Activity (mean)
# DCAMKL2 = DCAMKL2 (Homo sapiens (Human), UniProt Q8N568); assay: Kinome-wide profiling; assay type: biochemical; settings: read-out: % Residual Activity (mean)
# YSK4/MAP3K19 = YSK4/MAP3K19 (Homo sapiens (Human), UniProt Q56UN5); assay: Kinome-wide profiling; assay type: biochemical; settings: read-out: % Residual Activity (mean)
# NEK11 = NEK11 (Homo sapiens (Human), UniProt Q8NG66); assay: Kinome-wide profiling; assay type: biochemical; settings: read-out: % Residual Activity (mean)
# ACK1 = ACK1 (Homo sapiens (Human), UniProt Q07912); assay: Kinome-wide profiling; assay type: biochemical; settings: read-out: % Residual Activity (mean)
# CDK3/cyclin E2 = CDK3/cyclin E2 (Homo sapiens (Human), UniProt Q00526); assay: Kinome-wide profiling; assay type: biochemical; settings: read-out: % Residual Activity (mean)
# EPHA2 = EPHA2 (Homo sapiens (Human), UniProt P29317); assay: Kinome-wide profiling; assay type: biochemical; settings: read-out: % Residual Activity (mean)
# CDK18/cyclin Y (PCTK3) = CDK18/cyclin Y (PCTK3) (Homo sapiens (Human), UniProt Q07002); assay: Kinome-wide profiling; assay type: biochemical; settings: read-out: % Residual Activity (mean)
# CDK2/CYCLIN E = CDK2/CYCLIN E (Homo sapiens (Human), UniProt P24941); assay: Kinome-wide profiling; assay type: biochemical; settings: read-out: % Residual Activity (mean)
# NEK4 = NEK4 (Homo sapiens (Human), UniProt P51957); assay: Kinome-wide profiling; assay type: biochemical; settings: read-out: % Residual Activity (mean)
# HCC1954 xenograft = HCC1954 xenograft model, anticancer efficacy; assay type: in vivo, mouse; settings: 20 mg/kg and 40 mg/kg, i.p. twice a week
# Protocol: A mouse efficacy experiment was conducted after obtaining approval from the Laboratory Animal Ethics Committee of GenNBio (Review No.: GN-IACUC-Research 22-02-07). SK-Br3 and HCC-1954 cells (1×10^6 cells each) mixed with Matrigel (BD Biosciences) were […] injected into 5-week-old female Balb/c nude mice (Orient Bio, Seongnam, Republic of Korea). After tumors reached a size of about 100 mm^3, the compound, trastuzumab (20 mg/kg), and the like were intraperitoneally injected into mice (n=8 per group)(vehicle: 8% DMSO, 4% Tween-80, 88% PBS). The tumor size was measured twice weekly for about 4 weeks and calculated as follows. Volume (mm^3)=(a×b^2)/2; “a”, maximum diameter; “b”, vertical diameter
# PKCb2 = PKCb2 (Homo sapiens (Human), UniProt P05771); assay: Kinome-wide profiling; assay type: biochemical; settings: read-out: % Residual Activity (mean)
# PAK1 = PAK1 (Homo sapiens (Human), UniProt Q13153); assay: Kinome-wide profiling; assay type: biochemical; settings: read-out: % Residual Activity (mean)
# IKKb/IKBKB = IKKb/IKBKB (Homo sapiens (Human), UniProt O14920); assay: Kinome-wide profiling; assay type: biochemical; settings: read-out: % Residual Activity (mean)
# FES/FPS = FES/FPS (Homo sapiens (Human), UniProt P07332); assay: Kinome-wide profiling; assay type: biochemical; settings: read-out: % Residual Activity (mean)
# IGF1R = IGF1R (Homo sapiens (Human), UniProt P08069); assay: Kinome-wide profiling; assay type: biochemical; settings: read-out: % Residual Activity (mean)
# p70S6Kb/RPS6KB2 = p70S6Kb/RPS6KB2 (Homo sapiens (Human), UniProt Q9UBS0); assay: Kinome-wide profiling; assay type: biochemical; settings: read-out: % Residual Activity (mean)
# RET = RET (Homo sapiens (Human), UniProt P07949); assay: Kinome-wide profiling; assay type: biochemical; settings: read-out: % Residual Activity (mean)
# ARAF = ARAF (Homo sapiens (Human), UniProt P10398); assay: Kinome-wide profiling; assay type: biochemical; settings: read-out: % Residual Activity (mean)
# JAK1 = JAK1 (Homo sapiens (Human), UniProt P23458); assay: Kinome-wide profiling; assay type: biochemical; settings: read-out: % Residual Activity (mean)
# DAPK2 = DAPK2 (Homo sapiens (Human), UniProt Q9UIK4); assay: Kinome-wide profiling; assay type: biochemical; settings: read-out: % Residual Activity (mean)
# STK38/NDR1 = STK38/NDR1 (Homo sapiens (Human), UniProt Q15208); assay: Kinome-wide profiling; assay type: biochemical; settings: read-out: % Residual Activity (mean)
# GLK/MAP4K3 = GLK/MAP4K3 (Homo sapiens (Human), UniProt Q8IVH8); assay: Kinome-wide profiling; assay type: biochemical; settings: read-out: % Residual Activity (mean)
# PKCtheta = PKCtheta (Homo sapiens (Human), UniProt Q04759); assay: Kinome-wide profiling; assay type: biochemical; settings: read-out: % Residual Activity (mean)
# Chain of RET (P07949 29-1114): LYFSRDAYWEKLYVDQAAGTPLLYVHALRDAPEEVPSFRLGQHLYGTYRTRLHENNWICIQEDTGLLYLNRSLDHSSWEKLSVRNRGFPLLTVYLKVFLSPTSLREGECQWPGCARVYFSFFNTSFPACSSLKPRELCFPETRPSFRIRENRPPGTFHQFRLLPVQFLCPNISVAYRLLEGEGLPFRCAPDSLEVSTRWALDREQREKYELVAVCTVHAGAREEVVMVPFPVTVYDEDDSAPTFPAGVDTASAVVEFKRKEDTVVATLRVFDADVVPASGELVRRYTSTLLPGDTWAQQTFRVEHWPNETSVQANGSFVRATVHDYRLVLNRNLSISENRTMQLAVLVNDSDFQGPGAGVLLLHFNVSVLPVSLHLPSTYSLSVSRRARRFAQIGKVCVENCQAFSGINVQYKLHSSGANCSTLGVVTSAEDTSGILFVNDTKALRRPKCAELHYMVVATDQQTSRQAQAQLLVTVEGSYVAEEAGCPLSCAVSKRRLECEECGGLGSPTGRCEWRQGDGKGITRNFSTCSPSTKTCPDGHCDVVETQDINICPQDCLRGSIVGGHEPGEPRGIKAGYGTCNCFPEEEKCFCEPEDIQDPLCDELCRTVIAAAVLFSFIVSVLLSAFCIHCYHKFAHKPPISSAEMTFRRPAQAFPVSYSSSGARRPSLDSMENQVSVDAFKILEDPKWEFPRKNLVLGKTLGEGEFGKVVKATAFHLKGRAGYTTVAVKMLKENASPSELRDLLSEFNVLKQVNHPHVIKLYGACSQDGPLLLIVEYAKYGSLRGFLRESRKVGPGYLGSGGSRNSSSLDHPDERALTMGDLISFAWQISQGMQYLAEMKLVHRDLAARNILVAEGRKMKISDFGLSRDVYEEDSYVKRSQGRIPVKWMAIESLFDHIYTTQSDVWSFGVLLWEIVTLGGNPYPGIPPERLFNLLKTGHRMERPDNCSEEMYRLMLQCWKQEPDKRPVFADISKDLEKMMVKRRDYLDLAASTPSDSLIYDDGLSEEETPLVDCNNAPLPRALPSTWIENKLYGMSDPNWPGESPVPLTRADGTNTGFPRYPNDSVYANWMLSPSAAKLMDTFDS
# Chain of LKB1 (Q15831 whole entry): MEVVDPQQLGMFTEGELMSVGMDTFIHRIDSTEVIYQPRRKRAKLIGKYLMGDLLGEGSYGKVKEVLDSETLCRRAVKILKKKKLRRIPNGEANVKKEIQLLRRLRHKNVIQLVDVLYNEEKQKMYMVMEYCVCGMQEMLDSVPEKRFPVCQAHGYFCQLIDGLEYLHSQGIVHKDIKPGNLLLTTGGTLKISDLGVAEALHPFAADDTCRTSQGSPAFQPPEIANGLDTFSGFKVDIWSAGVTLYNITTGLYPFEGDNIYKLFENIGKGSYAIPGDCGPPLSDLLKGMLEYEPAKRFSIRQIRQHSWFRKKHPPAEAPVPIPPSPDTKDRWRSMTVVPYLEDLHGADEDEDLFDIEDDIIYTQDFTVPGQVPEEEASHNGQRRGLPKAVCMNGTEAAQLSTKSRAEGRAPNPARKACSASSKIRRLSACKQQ
# Chain of LKB1 (Q7RTN6 whole entry partner): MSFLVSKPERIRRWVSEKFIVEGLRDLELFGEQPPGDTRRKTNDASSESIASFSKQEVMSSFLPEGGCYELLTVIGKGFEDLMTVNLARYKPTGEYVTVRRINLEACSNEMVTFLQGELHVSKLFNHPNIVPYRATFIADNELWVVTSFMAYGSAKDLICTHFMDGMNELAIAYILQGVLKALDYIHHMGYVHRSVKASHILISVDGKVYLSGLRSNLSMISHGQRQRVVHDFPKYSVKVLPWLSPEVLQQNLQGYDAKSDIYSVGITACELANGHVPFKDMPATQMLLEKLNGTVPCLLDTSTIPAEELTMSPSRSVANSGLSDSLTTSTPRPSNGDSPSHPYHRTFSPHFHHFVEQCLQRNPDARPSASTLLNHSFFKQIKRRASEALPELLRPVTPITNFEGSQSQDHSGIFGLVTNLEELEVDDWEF
# Chain of LKB1 (Q9Y376 whole entry partner): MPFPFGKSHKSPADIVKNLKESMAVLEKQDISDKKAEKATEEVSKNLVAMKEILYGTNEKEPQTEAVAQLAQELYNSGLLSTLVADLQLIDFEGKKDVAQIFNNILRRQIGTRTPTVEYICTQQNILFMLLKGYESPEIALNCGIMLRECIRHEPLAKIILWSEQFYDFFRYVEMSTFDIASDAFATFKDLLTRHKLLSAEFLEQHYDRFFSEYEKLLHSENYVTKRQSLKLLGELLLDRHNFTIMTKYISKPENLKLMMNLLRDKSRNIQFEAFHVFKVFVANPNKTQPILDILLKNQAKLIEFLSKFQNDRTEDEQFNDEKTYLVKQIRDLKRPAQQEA
# Chain of FES/FPS (P07332 whole entry): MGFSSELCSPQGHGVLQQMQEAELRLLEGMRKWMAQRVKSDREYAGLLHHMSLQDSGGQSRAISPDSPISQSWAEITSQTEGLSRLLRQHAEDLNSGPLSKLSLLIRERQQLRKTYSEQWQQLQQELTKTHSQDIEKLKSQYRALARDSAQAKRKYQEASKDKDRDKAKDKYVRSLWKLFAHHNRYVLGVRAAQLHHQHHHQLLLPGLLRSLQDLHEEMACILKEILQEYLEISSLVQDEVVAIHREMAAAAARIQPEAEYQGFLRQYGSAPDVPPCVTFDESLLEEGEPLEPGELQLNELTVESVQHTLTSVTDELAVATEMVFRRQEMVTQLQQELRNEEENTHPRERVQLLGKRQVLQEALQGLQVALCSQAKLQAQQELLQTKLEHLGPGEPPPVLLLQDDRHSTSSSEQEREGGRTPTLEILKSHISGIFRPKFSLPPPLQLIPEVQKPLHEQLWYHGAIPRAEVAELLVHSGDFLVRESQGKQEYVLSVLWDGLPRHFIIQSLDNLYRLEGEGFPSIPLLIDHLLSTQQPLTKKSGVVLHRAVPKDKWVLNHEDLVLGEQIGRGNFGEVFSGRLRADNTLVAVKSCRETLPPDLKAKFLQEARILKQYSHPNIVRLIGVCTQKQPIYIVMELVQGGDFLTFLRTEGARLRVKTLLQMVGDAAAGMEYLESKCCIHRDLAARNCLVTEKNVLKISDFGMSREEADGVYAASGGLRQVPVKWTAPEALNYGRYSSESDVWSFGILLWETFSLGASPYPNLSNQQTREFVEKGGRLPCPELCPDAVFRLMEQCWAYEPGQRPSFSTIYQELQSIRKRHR
# Chain of FGFR2 (P21802 22-821): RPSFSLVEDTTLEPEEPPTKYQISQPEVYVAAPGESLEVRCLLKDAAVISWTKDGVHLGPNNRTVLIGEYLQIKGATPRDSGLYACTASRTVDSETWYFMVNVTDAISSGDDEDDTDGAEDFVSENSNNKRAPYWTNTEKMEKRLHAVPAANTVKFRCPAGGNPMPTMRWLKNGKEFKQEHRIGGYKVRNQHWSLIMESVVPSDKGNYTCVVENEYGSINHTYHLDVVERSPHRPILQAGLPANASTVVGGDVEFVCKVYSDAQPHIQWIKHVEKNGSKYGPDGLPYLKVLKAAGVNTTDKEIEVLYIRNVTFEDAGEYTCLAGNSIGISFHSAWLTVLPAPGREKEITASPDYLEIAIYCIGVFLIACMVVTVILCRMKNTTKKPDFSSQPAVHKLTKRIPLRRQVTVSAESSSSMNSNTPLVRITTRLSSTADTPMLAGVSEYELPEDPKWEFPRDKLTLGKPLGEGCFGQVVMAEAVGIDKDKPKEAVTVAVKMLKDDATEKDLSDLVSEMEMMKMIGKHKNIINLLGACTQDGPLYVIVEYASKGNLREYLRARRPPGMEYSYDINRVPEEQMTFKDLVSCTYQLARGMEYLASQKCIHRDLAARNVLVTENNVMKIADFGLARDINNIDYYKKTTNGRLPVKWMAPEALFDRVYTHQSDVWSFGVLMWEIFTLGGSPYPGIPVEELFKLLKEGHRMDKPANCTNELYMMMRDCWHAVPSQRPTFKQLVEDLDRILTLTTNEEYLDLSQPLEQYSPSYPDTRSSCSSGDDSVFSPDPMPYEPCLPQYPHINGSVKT
# Chain of NEK5 (Q6P3R8 whole entry): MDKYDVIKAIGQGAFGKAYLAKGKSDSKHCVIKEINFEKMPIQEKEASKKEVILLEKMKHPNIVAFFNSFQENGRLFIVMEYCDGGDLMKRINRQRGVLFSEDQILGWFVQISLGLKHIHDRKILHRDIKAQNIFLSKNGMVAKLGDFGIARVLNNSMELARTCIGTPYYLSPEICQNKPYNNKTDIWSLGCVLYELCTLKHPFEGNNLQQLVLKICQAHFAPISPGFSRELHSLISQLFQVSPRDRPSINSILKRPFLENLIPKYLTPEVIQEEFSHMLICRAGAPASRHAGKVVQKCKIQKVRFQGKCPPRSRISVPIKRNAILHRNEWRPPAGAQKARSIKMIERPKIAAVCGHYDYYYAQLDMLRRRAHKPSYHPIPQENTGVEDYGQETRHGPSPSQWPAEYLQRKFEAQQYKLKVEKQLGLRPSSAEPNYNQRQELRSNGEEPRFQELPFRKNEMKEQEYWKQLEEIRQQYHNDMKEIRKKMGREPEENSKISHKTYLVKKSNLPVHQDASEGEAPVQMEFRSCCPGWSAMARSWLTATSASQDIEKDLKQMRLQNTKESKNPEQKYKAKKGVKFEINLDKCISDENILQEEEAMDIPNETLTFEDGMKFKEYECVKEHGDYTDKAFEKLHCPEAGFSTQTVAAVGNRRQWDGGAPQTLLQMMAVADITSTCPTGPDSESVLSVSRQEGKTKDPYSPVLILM
# Chain of DAPK2 (Q9UIK4 whole entry): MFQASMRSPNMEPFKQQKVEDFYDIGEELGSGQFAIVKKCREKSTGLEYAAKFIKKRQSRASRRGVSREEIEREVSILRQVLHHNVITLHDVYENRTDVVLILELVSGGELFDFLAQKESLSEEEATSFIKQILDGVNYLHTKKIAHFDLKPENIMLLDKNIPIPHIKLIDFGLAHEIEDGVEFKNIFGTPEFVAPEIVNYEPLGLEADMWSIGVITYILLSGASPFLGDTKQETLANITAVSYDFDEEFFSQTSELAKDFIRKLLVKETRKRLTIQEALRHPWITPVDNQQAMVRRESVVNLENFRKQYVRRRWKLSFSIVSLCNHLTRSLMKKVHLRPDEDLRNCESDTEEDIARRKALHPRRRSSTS
smiles,measurement,setting,value
"CCn1cnc2c(NCc3ccc(-c4ccccn4)nc3)nc(-c3ccc(N)nc3)nc21 [Example 53, N-([2,2′-bipyridin]-5-ylmethyl)-2-(6-aminopyridin-3-yl)-9-ethyl-9H-purin-6-amine]",remaining activity at 10 µM,PAK6,57.2%
same,remaining activity at 10 µM,GSK3b,5.76%
same,remaining activity at 10 µM,NEK5,83.8%
same,remaining activity at 10 µM,FGFR2,33.7%
same,remaining activity at 10 µM,TNK1,91.3%
same,remaining activity at 10 µM,IRAK4,94.8%
same,remaining activity at 10 µM,c-MER,71%
same,remaining activity at 10 µM,LKB1,0%
same,remaining activity at 10 µM,PKCeta,87.9%
same,remaining activity at 10 µM,LYN B,54.4%
same,remaining activity at 10 µM,BRSK1,92.8%
same,remaining activity at 10 µM,DCAMKL2,55%
same,remaining activity at 10 µM,YSK4/MAP3K19,96.8%
same,remaining activity at 10 µM,NEK11,94.2%
same,remaining activity at 10 µM,ACK1,13.7%
same,remaining activity at 10 µM,CDK3/cyclin E2,2.63%
same,remaining activity at 10 µM,EPHA2,42.3%
same,remaining activity at 10 µM,CDK18/cyclin Y (PCTK3),2.46%
same,remaining activity at 10 µM,CDK2/CYCLIN E,4.01%
same,remaining activity at 10 µM,NEK4,95.8%
same,anticancer efficacy,HCC1954 xenograft,dose-dependent anticancer efficacy
same,remaining activity at 10 µM,PKCb2,39.6%
same,remaining activity at 10 µM,PAK1,24.5%
same,remaining activity at 10 µM,IKKb/IKBKB,83.7%
same,remaining activity at 10 µM,FES/FPS,6.37%
same,remaining activity at 10 µM,IGF1R,58%
same,remaining activity at 10 µM,p70S6Kb/RPS6KB2,92.2%
same,remaining activity at 10 µM,RET,79.5%
same,remaining activity at 10 µM,ARAF,79.5%
same,remaining activity at 10 µM,JAK1,92.1%
same,remaining activity at 10 µM,DAPK2,85.7%
same,remaining activity at 10 µM,STK38/NDR1,28.3%
same,remaining activity at 10 µM,GLK/MAP4K3,49.6%
same,remaining activity at 10 µM,PKCtheta,79.8%
